What is called GI50 is the concentration at which growth is held to half of that of the control. As usually defined, the TGI is the concentration at which net growth stops. A higher TGI goes with lower sensitivity of the cells.

Structures are written as SMILES. “And” between values parts separate entries of the source, which are not always exact repeats. Identical values can stand only once.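 The compound was tested at five concentrations on cells cultured in 96-well plates, with a 48-hour exposure period. GI50 = concentration required for 50% inhibition of growth. TGI is the concentration that stops growth completely.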 Where only a bound is given, the exact number is not on record here.

Some test systems named below: COLO 205 colon; DU-145 prostate; NCI-H522 lung; OVCAR-3 ovarian; OVCAR-4 ovarian; SF-268 CNS; SK-MEL-2 melanoma; SK-MEL-5 melanoma; SK-OV-3 ovarian; TK-10 renal.
Holding throughout (assay): DTP human tumour cell line panel, 48 h

Take `C=C1CCC2C3(C)COC(c4ccccc4Br)OC3CCC2(C)C1C/C=C1/C(=O)OCC1OC(C)=O` (stereo not drawn): the GI50 was 1.66 µM in the test on COLO 205 colon; 1.58 µM in the test on DU-145 prostate; 0.604 µM with NCI-H522 lung; 0.932 µM in the test on OVCAR-3 ovarian; 1.43 µM with OVCAR-4 ovarian; 1.65 µM in the test with SF-268 CNS. The GI50 in the test with SK-MEL-2 melanoma is 1.72 µM; in the test on SK-MEL-5 melanoma, 1.6 µM; in the test with SK-OV-3 ovarian, 2.85 µM; in the test with TK-10 renal, 1.91 µM. Moreover, the TGI in the test with COLO 205 colon was 3.2 µM; in the test on DU-145 prostate, 2.99 µM; in the test on NCI-H522 lung it was 2.03 µM; in the test with OVCAR-3 ovarian it was 2.47 µM; in the test on OVCAR-4 ovarian, 2.83 µM; in the test on SF-268 CNS it was 3.01 µM. For the same compound, the TGI in the test with SK-MEL-2 melanoma was 3.4 µM; in the test on SK-MEL-5 melanoma, 2.98 µM; with SK-OV-3 ovarian, 6.78 µM; in the test with TK-10 renal, 3.67 µM.
Take `CCCc1cc(=O)n2c(C(=O)Nc3ccccc3OC)c(C(=O)Nc3ccc(F)cc3)sc2n1`: the GI50 with COLO 205 colon was 38.2 µM; in the test on DU-145 prostate, 13.3 µM; in the test on NCI-H522 lung, 17.7 µM; in the test with OVCAR-3 ovarian, 9.56 µM; in the test with OVCAR-4 ovarian it was 5.03 µM; in the test on SF-268 CNS, 14.3 µM. The GI50 in the test with SK-MEL-2 melanoma was 7.53 µM; in the test with SK-MEL-5 melanoma it was 48.6 µM; with SK-OV-3 ovarian, 22.2 µM; with TK-10 renal it was 26 µM. For the same compound, the TGI was greater than 160 µM in the test with COLO 205 colon; 34.6 µM in the test on DU-145 prostate; 68 µM in the test on NCI-H522 lung; 34.1 µM in the test on OVCAR-3 ovarian; 15.3 µM in the test on OVCAR-4 ovarian; 38 µM in the test on SF-268 CNS. The TGI in the test with SK-MEL-2 melanoma is 29.6 µM; in the test with SK-MEL-5 melanoma, greater than 160 µM; with SK-OV-3 ovarian it was 96.7 µM; in the test on TK-10 renal, 64.3 µM.
On to `CSC1(SC2=NCCN2)SC2(NCCN2)S1`, for which the TGI in the test with COLO 205 colon came out at 40.5 µM; with DU-145 prostate, 28.2 µM; with NCI-H522 lung, 27.1 µM; with OVCAR-3 ovarian, 30.6 µM; in the test with OVCAR-4 ovarian, 44.6 µM; in the test on SF-268 CNS, 40.3 µM. The TGI in the test on SK-MEL-2 melanoma was 39.4 µM; in the test with SK-MEL-5 melanoma it was 35 µM; with SK-OV-3 ovarian, 42 µM; with TK-10 renal it was 18.6 µM.
For `OCC1OC(n2cnc3c(=S)nc[nH]c32)C(O)C1O` (stereo not drawn), the GI50 with COLO 205 colon was 8.34 µM; in the test with NCI-H522 lung, 9.27 µM; in the test on OVCAR-4 ovarian, 4.05 µM; in the test with SF-268 CNS, greater than 23.9 µM; with SK-MEL-2 melanoma, greater than 100 µM; with SK-MEL-5 melanoma, 9.5 µM. The GI50 in the test with SK-OV-3 ovarian was 1.25 µM; in the test with TK-10 renal, 4.37 µM. The TGI in the test on COLO 205 colon was greater than 2450 µM; in the test on DU-145 prostate it was greater than 2500 µM; in the test with NCI-H522 lung, greater than 2500 µM; with OVCAR-3 ovarian, greater than 2500 µM; with OVCAR-4 ovarian, greater than 2500 µM; with SF-268 CNS it was greater than 2500 µM. In addition, the TGI is greater than 2500 µM in the test on SK-MEL-2 melanoma; greater than 2500 µM with SK-MEL-5 melanoma; 1060 µM and > 47.4 µM with SK-OV-3 ovarian; greater than 2500 µM with TK-10 renal.
As for `COc1cc(C2C3=C(COC3=O)Nc3cc4c(cc32)CCC4)cc2c1OCO2` (stereo not drawn), the GI50 is 0.0407 µM in the test with COLO 205 colon; 0.0411 µM in the test with DU-145 prostate; 0.02 µM with NCI-H522 lung; 0.0231 µM in the test with OVCAR-3 ovarian; 0.0717 µM in the test on OVCAR-4 ovarian; 0.0558 µM in the test with SF-268 CNS. The GI50 with SK-MEL-2 melanoma is 0.0989 µM; with SK-MEL-5 melanoma, 0.0382 µM; in the test with SK-OV-3 ovarian, 0.0335 µM; in the test on TK-10 renal, 10.1 µM. Also, the TGI in the test on COLO 205 colon was 0.139 µM; with DU-145 prostate it was 0.296 µM; in the test on NCI-H522 lung, 0.0562 µM; in the test with OVCAR-3 ovarian it was 0.047 µM; in the test on OVCAR-4 ovarian, 19.8 µM; in the test with SF-268 CNS it was 6.58 µM. For the same compound, the TGI with SK-MEL-2 melanoma was 3.47 µM; in the test with SK-MEL-5 melanoma it was 0.264 µM; in the test with SK-OV-3 ovarian, 1.01 µM; with TK-10 renal, 32.4 µM.
`O=C(COc1cccc(/C=C2\COc3ccc(Cl)cc3C2=O)c1)c1ccc(Cl)cc1`: the GI50 in the test with COLO 205 colon is 15 µM; in the test with DU-145 prostate it was 14.7 µM; with NCI-H522 lung, 11.7 µM; with OVCAR-3 ovarian, 7.71 µM; with OVCAR-4 ovarian, 14.9 µM; with SF-268 CNS, 13.9 µM. Further, the GI50 was 7.4 µM in the test with SK-MEL-2 melanoma, 12.8 µM with SK-MEL-5 melanoma, 18.4 µM with SK-OV-3 ovarian and 15.1 µM in the test on TK-10 renal. The concentration for total growth inhibition (TGI) in the test with COLO 205 colon turned out to be 29.8 µM; in the test with DU-145 prostate, 27.8 µM; with NCI-H522 lung it was 27.2 µM; in the test with OVCAR-3 ovarian, 19.8 µM; in the test on OVCAR-4 ovarian, 31.5 µM; in the test on SF-268 CNS, 26.9 µM. Besides, the total growth inhibition concentration (TGI) in the test on SK-MEL-2 melanoma came to 21.1 µM; in the test on SK-MEL-5 melanoma it was 25.3 µM; with SK-OV-3 ovarian, 45.6 µM; in the test with TK-10 renal it was 28.7 µM.
As to `N=C(N)c1ccc(COc2ccccc2OCc2ccc(C(=N)N)cc2)cc1`, the GI50 in the test on COLO 205 colon was greater than 100 µM; with DU-145 prostate, 18.7 µM; in the test on NCI-H522 lung, 99.5 µM; with OVCAR-3 ovarian, 16.4 µM; with OVCAR-4 ovarian it was 92 µM; in the test on SF-268 CNS, 31.8 µM. Besides, the GI50 in the test on SK-MEL-2 melanoma is greater than 100 µM; in the test with SK-MEL-5 melanoma, 17.1 µM; in the test with SK-OV-3 ovarian, greater than 100 µM; in the test with TK-10 renal it was 34.3 µM. Further, the TGI with COLO 205 colon is greater than 100 µM; with DU-145 prostate it was 45.8 µM; in the test on NCI-H522 lung, greater than 100 µM; in the test on OVCAR-3 ovarian it was 53.5 µM; in the test on OVCAR-4 ovarian, greater than 100 µM; with SF-268 CNS, 86 µM. The TGI in the test with SK-MEL-2 melanoma is greater than 100 µM; in the test with SK-MEL-5 melanoma, 44.5 µM; in the test on SK-OV-3 ovarian, greater than 100 µM; in the test with TK-10 renal it was greater than 100 µM.
With `O=C(CN1CCN(c2ccccc2)CC1)N1CCN(c2nnc(-c3ccc(Cl)cc3)c(-c3ccc(Cl)cc3)n2)CC1`, the GI50 is 3.61 µM in the test with COLO 205 colon; 29.2 µM in the test on DU-145 prostate; 10.7 µM in the test on NCI-H522 lung; 7.24 µM in the test on OVCAR-3 ovarian; 11 µM with OVCAR-4 ovarian; 14.9 µM with SF-268 CNS. Moreover, the GI50 is 12.4 µM in the test with SK-MEL-2 melanoma, 6.03 µM in the test on SK-MEL-5 melanoma, greater than 100 µM in the test with SK-OV-3 ovarian and 5.97 µM in the test on TK-10 renal. The TGI is 27.7 µM in the test on COLO 205 colon; greater than 100 µM in the test on DU-145 prostate; 66.6 µM in the test on NCI-H522 lung; 41.3 µM with OVCAR-3 ovarian; greater than 100 µM with OVCAR-4 ovarian; greater than 100 µM with SF-268 CNS. Further, the TGI was 42.2 µM with SK-MEL-2 melanoma, 29.6 µM with SK-MEL-5 melanoma, greater than 100 µM with SK-OV-3 ovarian and greater than 100 µM with TK-10 renal.

These data come from PubChem BioAssay (NCI).
